Drawing on ChEMBL document CHEMBL1139128, “Structure-activity relationship analysis of a novel necroptosis inhibitor, Necrostatin-5” (Bioorg Med Chem Lett, 2007), this text covers Activity and EC50 for 83 compounds.

The source made the active and inactive calls. No rule for the calls is given here.

In general, EC50 refers to the concentration that produces a half-maximal response.

For the experiment, the system named is Jurkat. In words: Inhibition of TNF-alpha-induced necroptosis in FADD-deficient Jurkat T cells. Type of experiment: functional, cell-based. Also noted: concentration or dose not given beside the values. The following applies: for EC50: Jurkat.

Take `C#CCSc1nc2sc(CCC)c(C)c2c(=O)n1-c1ccc(OC)cc1`: the result (Homo sapiens) was inactive. On the same count and under the same terms, as for `CSc1nc2sc3ccccc3c2c(=O)n1-c1ccc(OC(F)(F)F)cc1`, the entry is “inactive”; as for `COc1ccc(-n2c(SCc3ccc(C)cc3)nc3sc4c(c3c2=O)CCCC4)cc1`, “inactive”; as for `COc1ccc(-n2c(SCC#N)nc3sc4c(c3c2=O)CC(C)CC4)cc1OC` (stereo unspecified), “inactive”. Same read-out and setting: to `CSc1nc2sc3c(c2c(=O)n1-c1ccc(OC(F)(F)F)cc1)CCC3` belongs “inactive”; to `COc1ccc(-n2c(SCc3ccccc3)nc3sc4c(c3c2=O)CCC4)cc1`, “inactive”. `COc1ccc(-n2c(SCC#N)nc3sc4ccccc4c3c2=O)cc1` returned an Activity of 83.3%. For the setting “Homo sapiens”, this compound displayed an EC50 of 180 nM. On the same counts, the results for `COc1ccc(-n2c(SCC#N)nc3sc4c(c3c2=O)CCCC4)cc1OC` are 57% and 5700 nM.

For the compound `COc1ccc(-n2c(SCC#N)nc3c(c2=O)C2CCCCCC2S3)cc1` (stereo unspecified), the Activity stood at 83%. For the same compound, a half-maximal response (Homo sapiens) (EC50) required 960 nM. `CSc1nc2sc3c(c2c(=O)n1-c1ccc2c(c1)OCO2)CCC3`: the result (Homo sapiens) was inactive. In the case of `Cc1sc2nc(SCC#N)n(-c3ccc4c(c3)OCO4)c(=O)c2c1C`, the Activity is given as 100%. Also, the EC50 (Homo sapiens) came to 1650 nM. Turning to `CCSc1nc2sc3c(c2c(=O)n1-c1ccc(OC)cc1)CCC3`, the result (Homo sapiens) was inactive. As to `Cc1sc2nc(SCC#N)n(-c3ccc(OC(F)(F)F)cc3)c(=O)c2c1C`, the Activity was found to be 63%. Moreover, a half-maximal response (Homo sapiens) (EC50) required 3700 nM. Take `COc1ccc(-n2c(SC)nc3sccc3c2=O)cc1`: for the setting “Homo sapiens”, the outcome was inactive. Still for that read-out and setting: as for `N#CCSc1nc2sc3c(c2c(=O)n1-c1ccc(Br)cc1)CCCC3`, the entry is “inactive”; as for `C#CCSc1nc2sc(CC)c(C)c2c(=O)n1-c1ccc2c(c1)OCO2`, “inactive”. The compound `CSc1nc2sc(C)c(C)c2c(=O)n1-c1ccc(F)cc1` returned an Activity of 69.2%. Further, the EC50 (Homo sapiens) is 2600 nM. `CSc1nc2sc3c(c2c(=O)n1-c1ccc(OCc2ccccc2)cc1)CCCC3`: where the note is “Homo sapiens”, the outcome was inactive. As for `N#CCSc1nc2sc3ccccc3c2c(=O)n1-c1ccc2c(c1)OCO2`, the Activity was determined as 100%. Moreover, a half-maximal response (Homo sapiens) (EC50) required 270 nM. Take `COc1ccc(CSc2nc3sc4c(c3c(=O)n2-c2ccc(OC)cc2)CCCC4)cc1`: for the setting “Homo sapiens”, the result was inactive.

Consider `CCSc1nc2sc(C)c(C)c2c(=O)n1-c1ccc(OC)cc1`, for which the result (Homo sapiens) was inactive.

In the case of `Cc1ccccc1-n1c(SCC#N)nc2sc3c(c2c1=O)CCCC3`, where the note is “Homo sapiens”, the result was inactive. Still for that read-out and setting: as for `Cc1ccc(-n2c(SCC#N)nc3sc4c(c3c2=O)CCC4)cc1C`, the entry is “inactive”. Take `Cc1ccc(-n2c(SCC#N)nc3sc4c(c3c2=O)CC(C)CC4)cc1C` (stereo unspecified): the Activity worked out at 38%. Moreover, the EC50 (Homo sapiens) was 16700 nM. In the case of `CCc1sc2nc(SCCO)n(-c3ccc(OC)cc3)c(=O)c2c1C`, the outcome (Homo sapiens) was inactive.

`Cc1cc(Cl)ccc1-n1c(SCC#N)nc2sc3c(c2c1=O)CCCC3`: the outcome (Homo sapiens) was inactive. In turn, `CCOc1ccc(-n2c(SCC#N)nc3sc(C)c(C)c3c2=O)cc1` had an Activity of 97%. For the setting “Homo sapiens”, this compound yielded an EC50 of 7770 nM. `N#CCSc1nc2sc3c(c2c(=O)n1-c1ccc(F)cc1)CCCC3` had an Activity of 85.1%. Also, the EC50 (Homo sapiens) stood at 240 nM. The compound `COc1ccc(-n2c(SC)nc3sc4c(c3c2=O)CCC4)cc1` showed an Activity of 97%. Where the note is “Homo sapiens”, a half-maximal effect (EC50) was put at 240 nM. On to `COc1ccc(-n2c(SC)nc3sc(C)c(C)c3c2=O)cc1`, for which the outcome (Homo sapiens) was inactive.

Regarding `CCCC(=O)Sc1nc2sc3c(c2c(=O)n1-c1ccc(OC)cc1)CCCC3`, the outcome (Homo sapiens) was inactive. Still for that read-out and setting: as for `CSc1nc2sc3c(c2c(=O)n1-c1ccc(C)c(C)c1)CC(C)CC3` (stereo unspecified), the entry is “inactive”; as for `COc1ccc(-n2c(SCC(=O)O)nc3sc(C)c(C)c3c2=O)cc1`, “inactive”. As to `CCc1sc2nc(SCC#N)n(-c3ccc(OC)cc3)c(=O)c2c1C`, the Activity was found to be 86.8%. Where the note is “Homo sapiens”, the EC50 came to 5260 nM. `COc1ccc(-n2c(SCC(N)=O)nc3sc4c(c3c2=O)CCCC4)cc1`: for the setting “Homo sapiens”, the result was inactive. For `COc1ccc(-n2c(SC)nc3sc4c(c3c2=O)CCCC4)cc1OC`, the Activity is given as 54.5%. This compound also had an EC50 (Homo sapiens) of 16700 nM.

`COc1ccccc1-n1c(SCC#N)nc2sc3c(c2c1=O)CCCC3` registered an Activity of 51.2%. Also, the EC50 (Homo sapiens) is 17800 nM. Regarding `CCOc1ccc(-n2c(SC)nc3sc(C)c(C)c3c2=O)cc1`, the outcome (Homo sapiens) was inactive. For the compound `N#CCSc1nc2sc3c(c2c(=O)n1-c1ccc2c(c1)OCCO2)CCC3`, the Activity stood at 100%. A half-maximal response (Homo sapiens) (EC50) required 250 nM. Turning to `CCSc1nc2sc(CC)c(C)c2c(=O)n1-c1ccc(OC)cc1`, the outcome (Homo sapiens) was inactive.

`N#CCSc1nc2sc3ccccc3c2c(=O)n1-c1ccc(OC(F)(F)F)cc1`: for the setting “Homo sapiens”, the outcome was inactive. Same read-out and setting: to `N#CCSc1nc2sc3c(c2c(=O)n1-c1ccc(F)cc1)CCCCC3` belongs “inactive”; to `C#CCSc1nc2sc(CC)c(C)c2c(=O)n1-c1ccc(OC)cc1`, “inactive”. Consider `CSc1nc2sc(C)c(C)c2c(=O)n1-c1ccc(OCc2ccccc2)cc1`, for which the outcome (Homo sapiens) was inactive.

With `CCCc1sc2nc(SCCO)n(-c3ccc(OC)cc3)c(=O)c2c1C`, the result (Homo sapiens) was inactive. The same measure, in the same setting: to `O=c1c2c3c(sc2nc(SCc2ccc([N+](=O)[O-])cc2)n1-c1ccccc1)CCCC3` belongs “inactive”. For the compound `N#CCSc1nc2sc3c(c2c(=O)n1-c1ccccc1)CCCC3`, for the setting “Homo sapiens”, the outcome was inactive. `COc1ccc(-n2c(SCC#N)nc3sc4c(c3c2=O)CN(C(C)C)CC4)cc1`: where the note is “Homo sapiens”, the outcome was inactive. Turning to `CCOc1ccc(-n2c(SCC#N)nc3sc4c(c3c2=O)CCC4)cc1`, the outcome (Homo sapiens) was inactive. For `N#CCSc1nc2sc3c(c2c(=O)n1-c1ccc(OC(F)(F)F)cc1)CCCCC3`, for the setting “Homo sapiens”, the outcome was inactive. On the same count and under the same terms, to `CCCCCCCCCCCCCCc1sc2nc(SCC#N)n(-c3ccc(OC)cc3)c(=O)c2c1C` belongs “inactive”. In the case of `N#CCSc1nc2sc3c(c2c(=O)n1-c1ccccc1)CCCCC3`, the outcome (Homo sapiens) was inactive. With `N#CCSc1nc2sc3c(c2c(=O)n1-c1ccc(F)cc1)CCC3`, the Activity turned out to be 88.7%. The compound further returned an EC50 (Homo sapiens) of 890 nM. Consider `N#CCSc1nc2sc3c(c2c(=O)n1-c1ccc(Cl)c(Cl)c1)CCCC3`, for which the Activity was determined as 39%. For the same compound, for the setting “Homo sapiens”, the EC50 came out at 5700 nM. Turning to `COc1ccc(-n2c(SC)nc3scc(C)c3c2=O)cc1`, the result (Homo sapiens) was inactive. Consider `COc1ccc(-n2c(SCC#N)nc3sc4c(c3c2=O)CCC4)cc1OC`, for which the outcome (Homo sapiens) was inactive. Regarding `CSc1nc2sc3c(c2c(=O)n1-c1ccc(F)cc1)CCCCC3`, the outcome (Homo sapiens) was inactive.

As for `CSc1nc2sccc2c(=O)n1-c1ccccc1`, where the note is “Homo sapiens”, the outcome was inactive. The same measure, in the same setting: as for `COc1ccc(-n2c(SC(C)=O)nc3sc4c(c3c2=O)CCCC4)cc1`, the entry is “inactive”; as for `CSc1nc2sc3c(c2c(=O)n1-c1ccc(Cl)c(Cl)c1)CCCC3`, “inactive”.

Consider `CCc1c(C)sc2nc(SCC#N)n(-c3ccc4c(c3)OCO4)c(=O)c12`, for which the Activity was determined as 100%. In addition, the EC50 (Homo sapiens) is 1900 nM. For `CCc1c(C)sc2nc(SCC#N)n(-c3ccc(OC)cc3)c(=O)c12` the same measures were 100% and 1080 nM. For `Cc1sc2nc(SCC#N)n(-c3ccc(F)cc3)c(=O)c2c1C` the same measures were 87.6% and 4430 nM.

`CSc1nc2sc3c(c2c(=O)n1-c1ccc(F)cc1)CCC3` gave an Activity of 95%. Moreover, a half-maximal effect (Homo sapiens) (EC50) was put at 3000 nM. With `COc1ccc(-n2c(SCC#N)nc3scc(C)c3c2=O)cc1`, the result (Homo sapiens) was inactive. Turning to `CCCCCSc1nc2sc3c(c2c(=O)n1-c1ccc(OC)cc1)CCC3`, for the setting “Homo sapiens”, the outcome was inactive. The same measure, in the same setting: to `CSc1nc2sc(C)c(C)c2c(=O)n1-c1ccc(OC(F)(F)F)cc1` belongs “inactive”; to `COc1ccc(-n2c(SCC(C)O)nc3sc4c(c3c2=O)CCCC4)cc1` (stereo unspecified), “inactive”. For `Cc1ccc(-n2c(SCC#N)nc3sc(C)c(C)c3c2=O)cc1C`, the Activity is recorded as 90.7%. The EC50 (Homo sapiens) is 2790 nM. Turning to `CCOc1ccc(-n2c(SC)nc3sc4c(c3c2=O)CCC4)cc1`, the outcome (Homo sapiens) was inactive.

For `COc1cccc(-n2c(SCC#N)nc3sc4c(c3c2=O)CCCC4)c1`, the Activity was found to be 87.7%. For the setting “Homo sapiens”, the EC50 turned out to be 1460 nM.

In the case of `COc1ccc(-n2c(SCC#N)nc3sc4c(c3c2=O)CCCC4)c(OC)c1`, the outcome (Homo sapiens) was inactive. The compound `C#CCSc1nc2sc(C)c(C)c2c(=O)n1-c1ccc(OC)cc1` showed an Activity of 90.3%. This compound also returned an EC50 (Homo sapiens) of 4860 nM.

Compound `N#CCSc1nc2sc3c(c2c(=O)n1-c1ccc2c(c1)OCO2)CCCC3` had an Activity of 100%. Where the note is “Homo sapiens”, this compound came in with a 50% effective concentration (EC50) of 890 nM. `COc1ccc(-n2c(SC[N+](=O)[O-])nc3sc4c(c3c2=O)CCCC4)cc1`: the outcome (Homo sapiens) was inactive. In the case of `CSc1nc2sc(C)c(C)c2c(=O)n1-c1ccc2c(c1)OCO2`, the Activity amounted to 67%. The compound also had an EC50 (Homo sapiens) of 1110 nM. As for `N#CCSc1nc2sc3ccccc3c2c(=O)n1-c1ccc2c(c1)OCCO2`, the Activity stood at 100%. This compound also showed an EC50 (Homo sapiens) of 150 nM. On the same counts, the results for `COc1ccc(-n2c(SCCl)nc3sc4c(c3c2=O)CCCC4)cc1` are 85% and 2220 nM. On to `COC(=O)CSc1nc2sc3c(c2c(=O)n1-c1ccc(OC)cc1)CCCC3`, for which the outcome (Homo sapiens) was inactive. On the same count and under the same terms, as for `CSc1nc2sc3c(c2c(=O)n1-c1ccc2c(c1)OCO2)CCCC3`, the entry is “inactive”.

Take `CSc1cccc(-n2c(SC)nc3sc4c(c3c2=O)CCCC4)c1`: the outcome (Homo sapiens) was inactive.

With `CSc1nc2sc3c(c2c(=O)n1-c1ccc(Br)cc1)CCCC3`, the result (Homo sapiens) was inactive.

Consider `CSc1nc2sc(C)c(C)c2c(=O)n1-c1ccc(N(C)C)cc1`, for which the outcome (Homo sapiens) was inactive.
